1 substance from US20090275634A1 (priority 2006, published 2009) can be followed below.

In experiment [1] the test system is peritoneal macrophages. It is filed as cell-based, C57BL6 mice.
For experiment [2], the system named is peritoneal macrophages. It is filed as cell-based, C57BL6 mice. The source holds these as a separate data set.
The subject of experiment [3] is peritoneal macrophages derived from MyD88 KO mice. It is filed as cell-based, MyD88 KO mice (C57BL6 background).
Experiment [4] shares this test system. It is filed as cell-based, MyD88 KO mice (C57BL6 background). The source holds these as a separate data set.
Experiment [5] has as its system peritoneal macrophages from TLR9 KO mice. Type of experiment: cell-based.

In the case of “5′-CTGCCACGTTCTCCTGCA*C*C*-3′ [nuclease resistant EN101]”, the “number of MAC-1 positive cells” value with peritoneal macrophages [1] is listed as “minor effect”. Besides, the “survival/proliferation of total and activated peritoneal macrophages” value in the experiment on peritoneal macrophages [1] (72 hr) was “inhibited”. In the experiment on peritoneal macrophages [2], the “MIP-2 secretion from PMs” value was “inhibited”, the “levels of MIP-2 in the supernatants of PM” value is given as “strongly elevated”, the “secretion of IL-6 from activated PMs” value is “did not induce secretion” and the “secretion of TNF-α from activated PMs” value was “did not induce secretion”. Further, the “number of MAC-1 positive cells” value in experiment [3] is reported as “reduced significantly”. In experiment [4], the “effect on MIP-2 levels in the supernatants of PMs” value is “almost totally inhibited”. Also, the “number of total and MAC-1 positive cells” value in experiment [5] was “reduced significantly”.
